# According to patent US9695155B2, “Herbicidal substituted pyrimidinyloxy benzene compounds” (E. I. DU PONT DE NEMOURS AND COMPANY, priority 2013, dated 2017):
# What was measured:
# giant foxtail [1] = assay: Test A preemergence; type: in vivo, Setaria faberii; conditions: for Plant response rating, Foxtail, Giant: 125 g ai/ha, 0 to 100 scale where 0 is no effect and 100 is complete control
# In short: (§1)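 Visual 0–100 rating (100 = complete control) taken about 10 d post-treatment relative to untreated checks. Preemergence: directed soil spray on sown loam/sand pots. Postemergence: seedlings 2–10 cm, 1–2 leaf. Non-phytotoxic solvent formulation with surfactant.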
# large (Lg) crabgrass = assay: Test C preemergence; type: in vivo, Digitaria sanguinalis; conditions: for Crabgrass, Large plant response rating: preemergence
# In short: (§2)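 Whole-plant greenhouse test with surfactant-containing solvent formulation, applied preemergence to sown loam–sand pots or postemergence to 2–18 cm plants. Scored by eye 13 to 15 days on, 0–100 scale.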
# johnsongrass [2] = assay: Test C preemergence; type: in vivo, Sorghum halepense; conditions: for Johnsongrass plant response rating: preemergence
# In short: as §2
# chickweed = assay: Test C postemergence; type: in vivo, Stellaria media
# In short: as §2
# waterhemp = assay: Test C postemergence; type: in vivo, Amaranthus rudis; conditions: for Plant response rating, Waterhemp: scale 0 to 100 (0 no effect, 100 complete control)
# In short: as §2
# galium = assay: Test C preemergence; type: in vivo, Galium aparine; conditions: for Galium plant response rating: preemergence
# In short: as §2
# yellow nutsedge [3] = assay: Test C postemergence; type: in vivo, Cyperus esculentus; conditions: for Plant response rating, Nutsedge, Yellow: scale 0 to 100 (0 no effect, 100 complete control)
# In short: as §2
# johnsongrass [4] = assay: Test C postemergence; type: in vivo, Sorghum halepense
# In short: as §2
# giant foxtail [5] = assay: Test C preemergence; type: in vivo, Setaria faberii; conditions: for Foxtail, Giant plant response rating: preemergence
# In short: as §2
# lambsquarters = assay: Test C preemergence; type: in vivo, Chenopodium album; conditions: for Lambsquarters plant response rating: preemergence
# In short: as §2
# giant foxtail [6] = assay: Test C postemergence; type: in vivo, Setaria faberii
# In short: as §2
# soybean = assay: Test C postemergence; type: in vivo, Glycine max; conditions: for Plant response rating, Soybean: scale 0 to 100 (0 no effect, 100 complete control)
# In short: as §2
# Italian ryegrass = assay: Test A preemergence; type: in vivo, Lolium multiflorum; conditions: for Plant response rating, Ryegrass, Italian: 125 g ai/ha, 0 to 100 scale where 0 is no effect and 100 is complete control
# In short: as §1
# yellow nutsedge [7] = assay: Test C preemergence; type: in vivo, Cyperus esculentus; conditions: for Nutsedge, Yellow plant response rating: preemergence
# In short: as §2
# [8] = 500 g ai/ha, 0 to 100 scale, 0 no effect, 100 complete control, approx. 10 days
# [9] = 16 g ai/ha, scale 0 to 100 (0 no effect, 100 complete control)
# [10] = 62 g ai/ha, scale 0 (no effect) to 100 (complete control)
# [11] = 125 g ai/ha, scale 0 (no effect) to 100 (complete control)
# [12] = Preemergence, 31 g ai/ha, scale 0 to 100, 0 no effect, 100 complete control
# [13] = 16 g ai/ha, postemergence, visual rating, scale 0 to 100 (0 no effect, 100 complete control), 13 to 15 days
# [14] = Postemergence, 31 g ai/ha, scale 0 to 100 (0 no effect, 100 complete control), 13 to 15 days
# [15] = Postemergence, 62 g ai/ha, scale 0 to 100 (0 no effect, 100 complete control)
# [16] = Postemergence, 31 g ai/ha, 13 to 15 days
# [17] = 16 g ai/ha, postemergence, 0 is no effect, 100 is complete control
# [18] = 125 g ai/ha, postemergence, visual rating, scale 0 to 100 (0 no effect, 100 complete control)
# [19] = 125 g ai/ha, postemergence, visual rating
compound,measurement,setting,value
CCOc1cnn(-c2c(C#N)cccc2Oc2ncc(F)cn2)c1 [Compound 89],"Plant response rating, Foxtail, Giant",giant foxtail [1],90
same,"Foxtail, Giant plant response rating",giant foxtail [1]; [8],90
same,"Crabgrass, Large plant response rating",large (Lg) crabgrass; [9],80
same,"Crabgrass, Large plant response rating",large (Lg) crabgrass; [10],100
same,"Crabgrass, Large plant response rating",large (Lg) crabgrass; [11],100
same,"Plant response rating, Crabgrass, Large",large (Lg) crabgrass; [12],100
same,Johnsongrass plant response rating,johnsongrass [2]; [9],0
same,Johnsongrass plant response rating,johnsongrass [2]; [10],20
same,Johnsongrass plant response rating,johnsongrass [2]; [11],75
same,"Plant response rating, Johnsongrass",johnsongrass [2]; [12],0
same,Chickweed plant response rating,chickweed; [13],20
same,"Plant response rating (0 to 100), Chickweed","chickweed; 125 g ai/ha, postemergence",60
same,"Plant response rating, Chickweed",chickweed; [14],50
same,"Plant response rating, Chickweed",chickweed; [15],50
same,"Plant response rating (0 to 100), Waterhemp","waterhemp; 125 g ai/ha, postemergence",60
same,"Plant response rating, Waterhemp",waterhemp; [16],40
same,"Plant response rating, Waterhemp","waterhemp; Postemergence, 62 g ai/ha",30
same,Galium plant response rating,galium; [9],30
same,Galium plant response rating,galium; [10],85
same,Galium plant response rating,galium; [11],100
same,"Plant response rating, Galium",galium; [12],100
same,"Plant response rating (0 to 100), Nutsedge, Yellow","yellow nutsedge [3]; 125 g ai/ha, postemergence",5
same,"Plant response rating, Nutsedge, Yellow",yellow nutsedge [3]; [16],5
same,"Plant response rating, Nutsedge, Yellow","yellow nutsedge [3]; Postemergence, 62 g ai/ha",20
same,Johnsongrass plant response rating,johnsongrass [4]; [13],0
same,"Plant response rating (0 to 100), Johnsongrass","johnsongrass [4]; 125 g ai/ha, postemergence",5
same,"Plant response rating, Johnsongrass",johnsongrass [4]; [14],5
same,"Plant response rating, Johnsongrass",johnsongrass [4]; [15],5
same,"Foxtail, Giant plant response rating",giant foxtail [5]; [9],5
same,"Foxtail, Giant plant response rating",giant foxtail [5]; [10],100
same,"Foxtail, Giant plant response rating",giant foxtail [5]; [11],100
same,"Plant response rating, Foxtail, Giant",giant foxtail [5]; [12],35
same,Lambsquarters plant response rating,lambsquarters; [9],45
same,Lambsquarters plant response rating,lambsquarters; [10],95
same,Lambsquarters plant response rating,lambsquarters; [11],100
same,"Plant response rating, Lambsquarters",lambsquarters; [12],80
same,"Foxtail, Giant plant response rating",giant foxtail [6]; [13],5
same,"Plant response rating (0 to 100), Foxtail, Giant","giant foxtail [6]; 125 g ai/ha, postemergence",10
same,"Plant response rating, Foxtail, Giant",giant foxtail [6]; [14],5
same,"Plant response rating, Foxtail, Giant",giant foxtail [6]; [15],5
same,"Plant response rating (0 to 100), Soybean","soybean; 125 g ai/ha, postemergence",95
same,"Plant response rating, Soybean",soybean; [16],65
same,"Plant response rating, Soybean","soybean; Postemergence, 62 g ai/ha",90
same,"Plant response rating, Ryegrass, Italian",Italian ryegrass,0
same,"Ryegrass, Italian plant response rating",Italian ryegrass; [8],10
same,"Nutsedge, Yellow plant response rating",yellow nutsedge [7]; [9],0
same,"Nutsedge, Yellow plant response rating",yellow nutsedge [7]; [10],10
same,"Nutsedge, Yellow plant response rating",yellow nutsedge [7]; [11],70
same,"Plant response rating, Nutsedge, Yellow",yellow nutsedge [7]; [12],5
FCc1cccc(Oc2ncc(Br)cn2)c1-n1cc(C(F)(F)F)cn1 [Compound 120],"Foxtail, Giant plant response rating (0 to 100 scale)",giant foxtail [1]; 31 g ai/ha,50
same,"Plant response rating, Foxtail, Giant",giant foxtail [1],100
same,"Plant response rating (0 to 100), Chickweed",chickweed; [17],40
same,"Plant response rating, Chickweed",chickweed; [18],80
same,"Plant response rating, Chickweed",chickweed; [15],70
same,"Plant response rating (0 to 100), Waterhemp",waterhemp; [17],75
same,"Plant response rating, Waterhemp",waterhemp; [19],85
same,"Plant response rating, Waterhemp","waterhemp; Postemergence, 62 g ai/ha",80
same,"Plant response rating (0 to 100), Nutsedge, Yellow",yellow nutsedge [3]; [17],0
same,"Plant response rating, Nutsedge, Yellow",yellow nutsedge [3]; [19],25
same,"Plant response rating, Nutsedge, Yellow","yellow nutsedge [3]; Postemergence, 62 g ai/ha",10
same,"Plant response rating (0 to 100), Johnsongrass",johnsongrass [4]; [17],0
same,"Plant response rating, Johnsongrass",johnsongrass [4]; [18],10
same,"Plant response rating, Johnsongrass",johnsongrass [4]; [15],5
same,"Plant response rating (0 to 100), Foxtail, Giant",giant foxtail [6]; [17],5
same,"Plant response rating, Foxtail, Giant",giant foxtail [6]; [18],35
same,"Plant response rating, Foxtail, Giant",giant foxtail [6]; [15],10
same,"Plant response rating (0 to 100), Soybean",soybean; [17],30
same,"Plant response rating, Soybean",soybean; [19],80
same,"Plant response rating, Soybean","soybean; Postemergence, 62 g ai/ha",30
same,"Ryegrass, Italian plant response rating (0 to 100 scale)",Italian ryegrass; 31 g ai/ha,0
same,"Plant response rating, Ryegrass, Italian",Italian ryegrass,30
